Assay results from patent publication US8791132B2, “Compounds and methods for treatment of hypertension” (Medivation Technologies, Inc., priority 2011, dated 2014).
Like-named read-outs stand apart in the source and are kept apart here.

Legend:
[1] = molecular target: T1, rat adrenergic α1B receptor (Rattus norvegicus, UniProt P15823); assay: Radioligand binding, adrenergic α1B ([3H]Prazosin); details: for inhibition at 0.03 µM: read-out: Percentage inhibition of ligand binding, Adrenergic α1B (0.03 μM), compound at 0.03 μM; for Percentage inhibition of ligand binding, Adrenergic α1B (0.1 μM) / Percentage inhibition of ligand binding, Adrenergic α1B: 0.1 µM
T1 construct: rat adrenergic α1B receptor obtained from Wistar Rat liver; from tissue; host or cells: Wistar rat liver
T1 sequence (P15823 1-515): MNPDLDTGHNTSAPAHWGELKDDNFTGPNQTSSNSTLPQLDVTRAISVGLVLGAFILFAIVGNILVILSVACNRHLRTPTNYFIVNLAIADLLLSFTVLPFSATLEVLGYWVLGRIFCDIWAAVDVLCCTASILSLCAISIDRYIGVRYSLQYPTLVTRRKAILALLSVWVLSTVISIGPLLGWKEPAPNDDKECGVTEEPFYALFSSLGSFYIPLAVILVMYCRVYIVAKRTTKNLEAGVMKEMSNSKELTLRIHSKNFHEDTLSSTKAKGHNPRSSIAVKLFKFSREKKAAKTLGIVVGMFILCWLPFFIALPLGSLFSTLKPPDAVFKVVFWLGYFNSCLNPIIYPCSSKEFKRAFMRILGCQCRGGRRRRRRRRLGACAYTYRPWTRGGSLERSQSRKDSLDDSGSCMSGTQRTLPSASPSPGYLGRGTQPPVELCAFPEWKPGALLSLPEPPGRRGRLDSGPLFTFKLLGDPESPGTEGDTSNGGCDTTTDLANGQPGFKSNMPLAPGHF
Outline: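 Rat α1B receptor from Wistar rat liver was incubated with 0.25 nM [3H]prazosin for 60 min at 25 °C in 50 mM Tris-HCl, pH 7.4, 0.5 mM EDTA. Non-specific binding was defined with 10 μM phentolamine. Bound radioligand was measured by filtration and counting, reported as percent inhibition of specific binding.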

[2] = molecular target: T2, human recombinant adrenergic α2A receptor (Homo sapiens, UniProt P08913); assay: Radioligand binding, adrenergic α2A ([3H]MK-912); details: for Percentage inhibition of ligand binding, Adrenergic α2A (0.1 μM) / Percentage inhibition of ligand binding, Adrenergic α2A: 0.1 µM
T2 construct: expressed in transfected cells; host or cells: insect Sf9 cells
T2 sequence (P08913 1-465): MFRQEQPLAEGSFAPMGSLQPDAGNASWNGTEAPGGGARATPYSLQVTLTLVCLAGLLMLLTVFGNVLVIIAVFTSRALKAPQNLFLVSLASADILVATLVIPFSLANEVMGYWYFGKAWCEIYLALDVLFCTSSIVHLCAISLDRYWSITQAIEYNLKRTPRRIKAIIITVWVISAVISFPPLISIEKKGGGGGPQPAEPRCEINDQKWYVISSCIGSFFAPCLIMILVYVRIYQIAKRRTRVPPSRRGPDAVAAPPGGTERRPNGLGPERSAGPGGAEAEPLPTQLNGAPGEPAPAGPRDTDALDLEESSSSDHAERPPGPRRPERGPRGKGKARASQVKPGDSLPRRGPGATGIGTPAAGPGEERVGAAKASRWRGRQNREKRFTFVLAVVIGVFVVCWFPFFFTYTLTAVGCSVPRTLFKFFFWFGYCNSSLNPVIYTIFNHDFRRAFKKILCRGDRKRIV
Outline: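 Displacement of 1 nM [3H]MK-912 from receptor produced in insect Sf9 cells was measured after 60 min at 25 °C. Readout: percent inhibition of specific binding.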

[3] = molecular target: T3, human recombinant adrenergic α2B receptor (Homo sapiens, UniProt P18089); assay: Radioligand binding, adrenergic α2B ([3H]Rauwolscine); details: for Percentage inhibition of ligand binding, Adrenergic α2B (0.03 μM) / Percentage inhibition of ligand binding, Adrenergic α2B: 0.03 µM
T3 construct: expressed in transfected cells; host or cells: CHO-K1
T3 sequence (P18089 1-450): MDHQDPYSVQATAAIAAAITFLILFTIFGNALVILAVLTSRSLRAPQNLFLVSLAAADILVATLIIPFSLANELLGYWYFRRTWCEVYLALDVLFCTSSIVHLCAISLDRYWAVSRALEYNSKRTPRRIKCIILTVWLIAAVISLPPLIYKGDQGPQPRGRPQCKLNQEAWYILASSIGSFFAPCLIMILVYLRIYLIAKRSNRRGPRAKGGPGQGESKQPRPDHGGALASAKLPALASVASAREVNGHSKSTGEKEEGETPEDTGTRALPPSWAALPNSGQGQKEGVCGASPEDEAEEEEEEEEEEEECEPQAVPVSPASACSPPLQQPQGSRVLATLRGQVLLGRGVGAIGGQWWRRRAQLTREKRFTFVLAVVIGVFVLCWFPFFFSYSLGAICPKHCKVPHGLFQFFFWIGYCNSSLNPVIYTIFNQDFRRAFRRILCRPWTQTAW
Outline: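 Assay used CHO-K1-expressed human α2B receptor in Tris-HCl pH 7.4 buffer with MgCl2, EDTA and BSA; 60 min incubation at 25 °C.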

[4] = compound at 0.1 μM, [3H]Prazosin, repeat datapoints each shown
[5] = compound at 0.1 μM, [3H]MK-912, repeat datapoints each shown
[6] = compound at 0.03 μM, [3H]Rauwolscine, repeat datapoints each shown
[7] = [3H]Prazosin, repeat datapoints each shown
[8] = read-out: Percentage inhibition of ligand binding, Adrenergic α1B (0.1 μM), compound at 0.1 μM, [3H]Prazosin, repeat datapoints each shown
[9] = read-out: Percentage inhibition of ligand binding, Adrenergic α2A (0.1 μM), compound at 0.1 μM, [3H]MK-912, repeat datapoints each shown
[10] = read-out: Percentage inhibition of ligand binding, Adrenergic α2B (0.03 μM), compound at 0.03 μM, [3H]Rauwolscine, repeat datapoints each shown
[11] = 0.03 μM compound, read-out: Percentage inhibition of ligand binding, Adrenergic α2B
[12] = compound at 0.1 μM, [3H]Prazosin, repeat assays, each datapoint shown
[13] = compound at 0.1 μM, [3H]MK-912, repeat assays, each datapoint shown
[14] = compound at 0.03 μM, [3H]Rauwolscine, repeat assays, each datapoint shown

SMILES | Percentage inhibition of ligand binding, Adrenergic α2A (0.1 μM) [2, 5] | Percentage inhibition of ligand binding, Adrenergic α2B (0.03 μM) [3, 6] | inhibition at 0.1 µM [1, 8] | inhibition at 0.1 µM [2, 9] | inhibition at 0.03 µM [3, 10] | other results
Cc1ccc2c(c1)c1c(n2CC(N)c2ccncc2)CCN(C)CC1 (single isomer, unassigned) [154a, 2-(3,9-dimethyl-2,3,4,5-tetrahydroazepino[4,5-b]indol-6(1H)-yl)-1-(pyridin-4-yl)ethanamine] | 4% | 31% | – | – | – | Percentage inhibition of ligand binding, Adrenergic α1B (0.1 μM) [1, 4]: 39%
Cc1ccc2c(c1)c1c(n2CC(N)c2ccncc2)CCN(C)CC1 (single isomer, unassigned) [154b, 2-(3,9-dimethyl-2,3,4,5-tetrahydroazepino[4,5-b]indol-6(1H)-yl)-1-(pyridin-4-yl)ethanamine] | – | 83% | 95% | 5% | 80% | inhibition at 0.03 µM [1, 7]: 80%; Ki ([3]; Ki α2B): 3.33 nM; inhibition at 0.1 µM ([3]; read-out: Percentage inhibition of ligand binding, Adrenergic α2B (0.1 μM), compound at 0.1 μM, [3H]Rauwolscine, repeat datapoints each shown): 95%
OC(Cn1c2c(c3ccccc31)C1CCC(C2)N1)c1ccncc1 (stereo not shown) [II-85] | – | – | – | – | – | inhibition at 0.1 µM ([1]; 0.1 μM compound, read-out: Percentage inhibition of ligand binding, Adrenergic α1B): -7%; inhibition at 0.1 µM ([2]; 0.1 μM compound, read-out: Percentage inhibition of ligand binding, Adrenergic α2A): 15%; inhibition at 0.03 µM [3, 11]: -2%
Cc1ccc2c(c1)c1c(n2CC(C)(O)c2ccc(C)nc2)CN(C)CC1 (single isomer, unassigned) [196a] | 71% | 103% | 54.6% | 58% | 93% | inhibition at 0.03 µM [1, 7]: 30%; Ki [2]: 16.8 nM; inhibition at 0.03 µM ([2]; read-out: Percentage inhibition of ligand binding, Adrenergic α2A (0.03 μM), compound at 0.03 μM, [3H]MK-912, repeat datapoints each shown): 37%; Ki ([3]; read-out: Ki α2B): 1.83 nM
Cc1ccc2c(c1)c1c(n2CC(C)(c2cnccn2)N(C)C)CCN2CCCC12 (single isomer, unassigned) [II-6b, dimethyl-[1-methyl-2-(9-methyl-1,2,3,4,5,10c-hexahydro-3a,6-diaza-cyclopenta[c]fluoren-6-yl)-1-pyrazin-2-yl-ethyl]-amine] | – | – | – | – | – | Percentage inhibition of ligand binding, Adrenergic α1B ([1]; 0.1 μM compound): 91%; Percentage inhibition of ligand binding, Adrenergic α2A ([2]; 0.1 μM compound): 81%; Percentage inhibition of ligand binding, Adrenergic α2B ([3]; 0.03 μM compound): 102%
Cc1ccc2c(c1)c1c(n2CC(N)c2ccc(C(N)=O)nc2)CCN(C)C1 (stereo not shown) [compound 157, 5-[1-amino-2-(2,8-dimethyl-1,2,3,4-tetrahydro-pyrido[4,3-b]indol-5-yl)-ethyl]-pyridine-2-carboxylic acid amide] | – | – | 57% | 6% | 43% | –
Cc1ccc2c(c1)c1c(n2CC(O)c2ccc(C)nc2)CCN2CCCC12 (single isomer, unassigned) [198b, 2-(9-methyl-1,2,3,4,5,10c-hexahydro-3a,6-diaza-cyclopenta[c]fluoren-6-yl)-1-(6-methyl-pyridin-3-yl)-ethanol] | 44% | 103% | – | – | – | Percentage inhibition of ligand binding, Adrenergic α1B (0.1 μM) [1, 4]: 84%
Cc1ccc2c(c1)c1c(n2CC(C)(O)c2cccnc2)CCN2CCCC12 (single isomer, unassigned) [II-127a, 1-(9-methyl-1,2,3,4,5,10c-hexahydro-3a,6-diaza-cyclopenta[c]fluoren-6-yl)-2-pyridin-3-yl-propan-2-ol] | 79% | – | 83% | – | 105% | –
Cc1ccc2c(c1)c1c(n2CC(O)c2ccncc2)CCN2CCCCC12 (single isomer, unassigned) [47a] | – | – | – | – | – | Percentage inhibition of ligand binding, Adrenergic α1B [1, 12]: 58%; Percentage inhibition of ligand binding, Adrenergic α2A [2, 13]: 10%; Percentage inhibition of ligand binding, Adrenergic α2B [3, 14]: 40%
Cc1cnc2c(c1)c1c(n2CC(O)c2ccc(C#N)cc2)CCN(C)C1 (stereo not shown) [compound 145] | – | – | 49% | 6% | 61% | –
Cc1ccc2c(n1)c1c(n2CC(O)c2ccncc2)CCN2CCCC12 (stereo not shown) [II-122] | – | – | -2% | -10% | 47% | –
CN1CCc2c(c3cc(Cl)ccc3n2CC(O)c2ccncc2)C1 (single isomer, unassigned) [4b] | – | – | – | – | – | Percentage inhibition of ligand binding, Adrenergic α1B [1, 12]: 58%; Percentage inhibition of ligand binding, Adrenergic α2A [2, 13]: 7%; Percentage inhibition of ligand binding, Adrenergic α2B [3, 14]: 46%
Cc1ccc2c(c1)c1c(n2CC(C)(c2cnccn2)N(C)C)CCN2CCCC12 (single isomer, unassigned) [II-6a, dimethyl-[1-methyl-2-(9-methyl-1,2,3,4,5,10c-hexahydro-3a,6-diaza-cyclopenta[c]fluoren-6-yl)-1-pyrazin-2-yl-ethyl]-amine] | – | – | – | – | – | Percentage inhibition of ligand binding, Adrenergic α1B ([1]; 0.1 μM compound): 66%; Percentage inhibition of ligand binding, Adrenergic α2A ([2]; 0.1 μM compound): 45%; inhibition at 0.03 µM [3, 11]: 85%
Cc1ccc2c(c1)c1c(n2CC(O)c2cnn[nH]2)CCN2CCCC12 (stereo not shown) [II-138] | – | – | 57% | 9% | 77% | –
Cc1ccc2c(c1)c1c(n2CC(C)(O)c2ccc(C(=O)O)nc2)CCN(C)C1 (stereo not shown) [compound 169, 5-(1-(1,2,3,4-tetrahydro-2,8-dimethylpyrido[4,3-b]indol-5-yl)-2-hydroxypropan-2-yl)pyridine-2-carboxylic acid] | – | – | 2% | 15% | 20% | –
Cc1ccc(CCn2c3c(c4cc(Cl)cnc42)C2CCCN2CC3)cn1 (single isomer, unassigned) [137b] | 6% | 30% | – | – | – | Percentage inhibition of ligand binding, Adrenergic α1B (0.1 μM) [1, 4]: 23%
